Experimental findings from US20140005103A1, “SULFONAMIDE DERIVATIVES AND METHODS OF USE THEREOF FOR IMPROVING THE PHARMACOKINETICS OF A DRUG” (Merck, Sharp & Dohme Corp., priority 2012, published 2014) are described below.

One experiment deals with T1, human CYP11B2 (Homo sapiens, UniProt P19099).
T1 construct: expressed in transfected cells
T1 sequence (P19099 25-503): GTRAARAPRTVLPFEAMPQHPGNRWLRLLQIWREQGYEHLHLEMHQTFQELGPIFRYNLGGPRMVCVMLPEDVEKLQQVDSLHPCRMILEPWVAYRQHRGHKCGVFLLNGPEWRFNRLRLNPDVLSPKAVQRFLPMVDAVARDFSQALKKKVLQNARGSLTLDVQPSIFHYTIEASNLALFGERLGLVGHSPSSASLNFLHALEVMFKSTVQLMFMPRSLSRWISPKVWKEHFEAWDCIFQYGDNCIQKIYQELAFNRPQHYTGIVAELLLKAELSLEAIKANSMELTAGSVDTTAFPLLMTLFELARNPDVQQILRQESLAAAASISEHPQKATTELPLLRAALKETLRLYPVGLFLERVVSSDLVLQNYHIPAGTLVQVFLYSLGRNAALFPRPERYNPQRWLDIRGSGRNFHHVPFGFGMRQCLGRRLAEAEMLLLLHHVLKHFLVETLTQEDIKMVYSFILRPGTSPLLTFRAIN
Nature of the experiment: IC50 vs CYP11B2 by aldosterone synthesis in V79 cells. The experiment is classed as cell-based. The following applies: V79 cells expressing human CYP11B2, 750 nM DOC, aldosterone HTRF; test concentrations 0.5-10000 nM. How it is done: Determination of IC50 vs CYP11B1/CYP11B2 by Measurement of Cortisol/Aldosterone Synthesis
This assay was performed in a standard 384-well plate design using cultured V79 cells stably expressing human CYP11B1 or human CYP11B2. Test compounds at 10 concentrations (for example, 10000, 3333.3, 1111.1, 370.4, 123.5, 41.2, 13.7, 4.6, 1.5 and 0.5 nM) were added in 384-well plate after the cell-seeding procedure. The incubation substrate contains 1500 nM RSS for CYP11B1 assay/750 nM DOC for CYP11B2 assay. The
Cortisol/Aldosterone production of cell culture supernatant was determined by Cortisol/Aldosterone HTRF kit after for about 15 hours incubation at RT (protect from light). IC50 values were calculated from the percent inhibition observed for each test compound at 10 concentrations.
The assay plate was read using Envision (Perkin Elmer, Waltham, Mass.) at 665 nm and 590 nm (using Filter Barcode of 217#, 205#; Mirror Barcode of 446#).
Data are analyzed using Assay Data Analyzer. All ratio data (665 nm/590 nm) are back calculated according to the standard curve, resulting in Cortisol/Aldosterone concentrations. IC50 values are reported as the Inflection Point (IP) of a four parameter fit of the titration data.
The following equation was used to calculate the % inhibition:
% Activity=100×{1−(Sample_back calculated Cortisol/Aldosterone concentration−LC_back calculated Cortisol/Aldosterone concentration)/(HC_back calculated Cortisol/Aldosterone concentration−LC_back calculated Cortisol/Aldosterone concentration)}
A general note: Time-resolved FRET reads energy transfer from a long-lived donor to a nearby acceptor.

The target in the next experiment is T2, CYP2C9 (Homo sapiens, UniProt P11712).
T2 construct: 0.1 mg/mL protein human liver microsomes (BD Gentest); tissue BD Gentest; host or cells: human liver microsomes
As to the kind of experiment: Cocktail CYP assay, diclofenac 4'-hydroxylation. The experiment is classed as in vitro ADME. The conditions noted are these: human liver microsomes, 5 μM diclofenac; test concentrations up to 10 μM. Background: Liver microsomes are a subcellular fraction often used to study metabolism.

The target in another experiment is T3, human CYP11B1 (Homo sapiens, UniProt P15538).
T3 construct: expressed in transfected cells
T3 sequence (P15538 25-503): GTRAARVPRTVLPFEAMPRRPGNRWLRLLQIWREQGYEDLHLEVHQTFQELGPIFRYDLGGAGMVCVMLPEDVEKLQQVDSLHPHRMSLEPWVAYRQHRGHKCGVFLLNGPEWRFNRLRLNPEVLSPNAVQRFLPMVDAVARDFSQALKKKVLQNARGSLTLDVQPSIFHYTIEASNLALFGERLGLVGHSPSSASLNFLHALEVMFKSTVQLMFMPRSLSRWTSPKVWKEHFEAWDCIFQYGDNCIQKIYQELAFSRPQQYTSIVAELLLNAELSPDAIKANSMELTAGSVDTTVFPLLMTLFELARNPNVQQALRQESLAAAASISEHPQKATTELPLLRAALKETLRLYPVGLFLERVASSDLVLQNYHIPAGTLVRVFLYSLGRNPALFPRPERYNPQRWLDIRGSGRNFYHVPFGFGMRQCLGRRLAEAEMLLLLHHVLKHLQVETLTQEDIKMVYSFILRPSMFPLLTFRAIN
As to the kind of experiment: IC50 vs CYP11B1 by cortisol synthesis in V79 cells. The experiment is classed as cell-based. The following applies: V79 cells expressing human CYP11B1, 1500 nM RSS, cortisol HTRF; test concentrations 0.5-10000 nM. The procedure, abridged:
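V79 cells stably expressing human enzyme exposed to 10 compound concentrations with substrate 1500 nM RSS (CYP11B1) or 750 nM DOC (CYP11B2), ~15 h at RT in dark. Supernatant cortisol or aldosterone quantified by HTRF against standard curve; IC50 as inflection point of four-parameter fit.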

Each structure is given as a SMILES string. pIC50: −log10 of the molar value. Where only a bound is given, the exact number is not on record here.

T2 sequence (P11712 whole entry): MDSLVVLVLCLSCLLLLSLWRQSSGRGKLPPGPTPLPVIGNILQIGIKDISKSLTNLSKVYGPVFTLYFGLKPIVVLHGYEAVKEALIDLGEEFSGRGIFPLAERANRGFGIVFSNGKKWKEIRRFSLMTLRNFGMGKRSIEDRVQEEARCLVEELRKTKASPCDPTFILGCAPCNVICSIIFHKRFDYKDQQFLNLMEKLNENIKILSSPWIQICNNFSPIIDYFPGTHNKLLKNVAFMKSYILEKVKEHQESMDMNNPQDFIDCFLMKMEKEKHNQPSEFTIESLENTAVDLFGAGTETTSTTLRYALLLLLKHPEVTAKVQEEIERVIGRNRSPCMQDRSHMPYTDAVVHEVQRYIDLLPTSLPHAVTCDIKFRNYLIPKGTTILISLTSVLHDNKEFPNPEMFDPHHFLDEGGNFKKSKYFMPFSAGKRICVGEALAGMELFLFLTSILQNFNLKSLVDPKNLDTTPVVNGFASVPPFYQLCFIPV

As to `C[C@H](c1ccc(F)cc1)n1cncc1CN1CCN(S(=O)(=O)c2cnc(N3CC[C@@H](N4CCOCC4)[C@H](F)C3)s2)CC1` [Compound 20], the pIC50 against human CYP11B2 is 5.65; on CYP2C9, 5.35; on human CYP11B1, 5.99.
For `C[C@H](c1ccc(F)cc1)n1cncc1CN1CCN(S(=O)(=O)c2cnc(N3C[C@@H]4C[C@@H](O)CN4C[C@@H]3C)s2)CC1` [Compound 21], in that order: < 5.00, 5.94 and 5.41.
As to `CC1CN(c2ncc(S(=O)(=O)N3CCN(Cc4cncn4[C@H](C)c4ccc(F)cc4)CC3)s2)C[C@@H]2C[C@@H](O)CN12` (stereo partly drawn) [Compound 23], the pIC50 against human CYP11B2 is 5.34; on CYP2C9, 5.30; against human CYP11B1, 5.91.
For `C[C@H](c1ccc(F)cc1)n1cncc1CN1CCN(S(=O)(=O)c2cnc(N3CCN4C[C@H](O)CC4(C)C3)s2)CC1` (stereo partly drawn) [Compound 24], in that order: < 5.00, 5.87 and 5.37.
`C[C@H](c1ccc(F)cc1)n1cncc1CN1CCN(S(=O)(=O)c2cnc(N3CCC(N)(CO)CC3)s2)CC1` [Compound 25]: the pIC50 against human CYP11B2 is < 5.00; against CYP2C9 it was 5.01; on human CYP11B1, 5.16.
As for `C[C@H](c1ccc(F)cc1)n1cncc1CN1CCN(S(=O)(=O)c2cnc(N3CCN4C(=O)OC[C@H]4C3)s2)CC1` [Compound 26], the pIC50 against human CYP11B2 is 5.04; at CYP2C9 it was 5.37; against human CYP11B1 it was 5.52.
For `C[C@H](c1ccc(F)cc1)n1cncc1CN1CCN(S(=O)(=O)c2cnc(N3CCN4CCC(O)[C@H]4C3)s2)CC1` (stereo partly drawn) [Compound 27], the pIC50 at human CYP11B2 was 5.64; against CYP2C9, 5.75; on human CYP11B1, 5.80.
Consider `C[C@H](c1ccc(F)cc1)n1cncc1CN1CCN(S(=O)(=O)c2ccc(N3CCNCC3)cn2)CC1` [Compound 28], for which the figures for the pIC50 on human CYP11B2, against CYP2C9 and against human CYP11B1 were 5.33, 5.18 and 5.45, respectively.
As to `C[C@H](c1ccc(F)cc1)n1cncc1CN1CCN(S(=O)(=O)c2cncc(N3CCNCC3)c2)CC1` [Compound 29], the values for the pIC50 against human CYP11B2, on CYP2C9 and against human CYP11B1 were 5.36, < 5.00 and 5.84, respectively.
As for `C[C@H](c1ccc(F)cc1)n1cncc1CN1CCN(S(=O)(=O)c2cnc(N3CCNCC3)cn2)CC1` [Compound 30], the pIC50 against human CYP11B2 was 5.54; at CYP2C9, < 5.00; on human CYP11B1, 5.35.
For `Cc1ccc(C2(n3cncc3CN3CCN(S(=O)(=O)c4cnc(N5CCN(C)CC5)s4)CC3)CC2)nc1` [Compound 31], the pIC50 against human CYP11B2, on CYP2C9 and at human CYP11B1 was < 5.00 throughout.
As to `CN1CCN(c2ncc(S(=O)(=O)N3CCN(Cc4cncn4CCOc4ccc(Cl)cc4)CC3)s2)CC1` [Compound 32], the pIC50 at human CYP11B2 was 5.99; on CYP2C9 it was 5.81; at human CYP11B1 it was 5.80.
The corresponding values for `CN1CCN(c2ncc(S(=O)(=O)N3CCN(Cc4cncn4CCOc4ccc(F)cn4)CC3)s2)CC1` [Compound 33] are 5.79, < 5.00 and 5.32.
Take `CC(c1cncn1[C@H](C)c1ccc(F)cc1)N1CCN(S(=O)(=O)c2cnc(N3CCN4C[C@H](O)C[C@H]4C3)s2)CC1` (stereo partly drawn) [Compound 37]: the pIC50 against human CYP11B2 is 6.71; at CYP2C9, 5.21; at human CYP11B1, 5.42.
Consider `C[C@H](c1ccc(F)cc1)n1cncc1C1C(=O)OCC2CN(S(=O)(=O)c3cnc(Nc4ccc(C(F)(F)F)cn4)s3)CCN21` (stereo partly drawn) [Compound 39], for which the pIC50 on human CYP11B2 was 5.61; against CYP2C9, 5.33; against human CYP11B1 it was 5.61.
Consider `C[C@H](c1ccc(F)cc1)n1cncc1C1COCC2CN(S(=O)(=O)c3cnc(Nc4ccccn4)s3)CCN21` (stereo partly drawn) [Compound 40], for which the pIC50 was 5.41 on human CYP11B2, 6.45 against CYP2C9 and 5.94 at human CYP11B1.
The corresponding values for `C[C@H](c1ccc(F)cc1)n1cnnc1CN1CCN(S(=O)(=O)c2cnc(N3CCN4C[C@H](O)C[C@H]4C3)s2)CC1` [Compound 42] are < 5.00, < 5.00 and 5.11.

For orientation: pIC50 means the negative decadic logarithm of the IC50, by convention in mol/L. Higher therefore signals a small IC50.
